Reference: publication PMC12250347, “Calcium-dependent pathway as a primary cause of hypoxic RGC damage in monkey retinal explants” (PLOS One, 2025)

Columns and labels:
human liver cathepsin B = biological target: T1, human liver cathepsin B (Homo sapiens, UniProt P07858); experiment: In vitro cathepsin inhibitory assay (Z-Phe-Arg-AMC fluorescence); assay type: biochemical; conditions: 15 ng/mL cathepsin B, 20 µM Z-Phe-Arg-AMC, 15 min, 37°C, pH 5.5; mean of two experiments
T1 construct: human liver cathepsin B (MilliporeSigma); purchased MilliporeSigma; host or cells: human liver
Method: (§1) Cathepsins K, B, and L were selected because of their known roles in cell death and early release following lysosomal membrane permeabilization. The inhibitory activities of cathepsin inhibitors were assessed in vitro using human recombinant cathepsin K (MilliporeSigma), human liver cathepsin B (MilliporeSigma), and human liver cathepsin L (MilliporeSigma). Cathepsins and the cathepsin substrate, Z-Phe-Arg-AMC (PEPTIDE INSTITUTE, INC.), were dissolved in 50 mM sodium acetate buffer (pH 5.5) containing 2 mM dithiothreitol and 2 mM EDTA. A cathepsin K inhibitor, Odanacatib (Selleck Chemicals, Houston, TX, USA), and a cathepsin L inhibitor, SID26681509 (Bio-Techne Corporation), were dissolved in dimethyl sulfoxide (DMSO) (Nacalai Tesque, Kyoto, Japan) before use in the assay. The final concentration of DMSO in the reaction solution was 2%. The cathepsin substrate, 20 µM Z-Phe-Arg-AMC, was incubated for 15 min with 20 ng/mL cathepsin K, 15 ng/mL cathepsin B, or 50 ng/mL cathepsin L, with or without each inhibitor at a final concentration of 0.001 nM to 100 µM in 100 µL of mixed reaction solution in a 96-well plate at 37 °C. The fluorescence was measured using a microplate reader (GloMax Discover System; Promega). IC50 values from two independent experiments were averaged.

human liver cathepsin L = biological target: T2, human liver cathepsin L (Homo sapiens, UniProt P07711); experiment: as above; assay type: biochemical; conditions: 50 ng/mL cathepsin L, 20 µM Z-Phe-Arg-AMC, 15 min, 37°C, pH 5.5; mean of two experiments
T2 construct: human liver cathepsin L (MilliporeSigma); purchased MilliporeSigma; host or cells: human liver
T2 sequence (P07711 114-333): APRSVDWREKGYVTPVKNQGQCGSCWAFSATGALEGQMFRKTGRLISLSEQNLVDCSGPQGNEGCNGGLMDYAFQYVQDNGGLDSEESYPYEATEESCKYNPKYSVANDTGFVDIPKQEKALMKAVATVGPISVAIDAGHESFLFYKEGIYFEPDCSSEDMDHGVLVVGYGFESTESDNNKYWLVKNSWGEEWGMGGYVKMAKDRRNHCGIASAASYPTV
Method: as §1

[1] = biological target: T3, human recombinant cathepsin K (Homo sapiens, UniProt P43235); experiment: as above; assay type: biochemical; conditions: 20 ng/mL cathepsin K, 20 µM Z-Phe-Arg-AMC, 15 min, 37°C, pH 5.5; mean of two experiments
T3 construct: purchased MilliporeSigma
T3 sequence (P43235 115-329): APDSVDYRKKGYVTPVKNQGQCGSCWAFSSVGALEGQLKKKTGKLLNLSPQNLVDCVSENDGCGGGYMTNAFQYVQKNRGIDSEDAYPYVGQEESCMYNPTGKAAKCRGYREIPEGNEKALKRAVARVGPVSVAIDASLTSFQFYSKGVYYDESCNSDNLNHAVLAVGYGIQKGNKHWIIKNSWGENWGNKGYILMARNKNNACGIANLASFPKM
Method: as §1

[2] = test system: calpain-specific SBDP150 in nerve fiber layer (NFL); experiment: SBDP150 immunostaining of flat-mounted retinal explants under hypoxia/reoxygenation; assay type: cell-based, rhesus macaques (Macaca mulatta); conditions: H16R8; for Effect on calpain-specific SBDP150-positive staining in NFL: cathepsin inhibitor at 10 or 100 µM
Method: Retina explant culture was performed as described in our previous report, except for the induction of hypoxia. Briefly, a hypoxic chamber (Coy Laboratory Products, Grass Lake, MI, USA) was controlled at 0.3% oxygen with a 95% N2/5% CO2 gas mixture. Retinas were dissected into fan-shaped explants with 6 or 7 petals (> 5 mm) in HBSS. Each explant was placed with the RGC side facing up on a Millicell organotypic standing insert (0.4 μm, 30 mm diameter, MilliporeSigma) in six-well, culture plates. They were cultured for 2 hr at 37°C under 95% N2/5% CO2 in Neurobasal-A medium supplemented with B27, N2 supplements, 2 mM L-glutamine (Thermo Fisher Scientific, Waltham, MA, USA), and 100 μg/mL primocin (Invivogen, San Diego, CA, USA). Retinal explants were then chamber-cultured under hypoxic conditions for 16 hr in a culture medium with 0.5 mM glucose, under 0.3% oxygen. The retinas were then re-oxygenated for 8 hr in a culture medium with 5.5 mM glucose. Normoxic control retinas were cultured for 24 hr in a culture medium with 5.5 mM glucose. When present, calpain inhibitors (SNJ-1945, PD-151746, C2I, and ABT-957) and cathepsin inhibitors (Odanacatib and SID26681509) in 0.1% DMSO were used at the final concentration of 10 or 100 μM in the medium. BAPTA (Thermo Fisher Scientific) and BAPTA-AM (Thermo Fisher Scientific) were also used at a final concentration of 3 or 10 mM or a final concentration of 100 or 500 μM, respectively.
All inhibitors and BAPTA were treated simultaneously with hypoxia induction, and BAPTA-AM treatment was 2 hr before hypoxia induction.
Formalin-fixed retinal explants were incubated overnight at −30°C in 1: 4 dilutions of DMSO-ethanol to promote antibody penetration. The explants underwent two cycles of freezing and thawing between −80°C and room temperature in 100% ethanol for 20 min. The retinas were then rehydrated in 70%, 50%, and 15% ethanol and PBS for 20 min each, followed by overnight incubation with 0.2% Triton X-100. The samples were stained with antibodies specific for calpain-specific SBDP150 [8] (1:100 dilution, Senju Pharmaceutical) and β-III tubulin (a neuron marker, 1:500 dilution, Merck). The nerve fiber layer (NFL) was observed approximately 5 mm from the tips of the fan-shaped retinal flat mounts. Confocal images were taken using a model LSM 880 spectral confocal system with a 20x 0.8 NA lens (Carl Zeiss, Oberkochen, Germany).

[3] = test system: RGCs in monkey retinal explants; set-up: method as in PMID 26393472, PMID 33156340; conditions: human and monkey retinal explants treated with hypoxia; cited from earlier work

IC50 (human liver cathepsin B) | IC50 (human liver cathepsin L) | IC50 [1] | SMILES | Effect on calpain-specific SBDP150-positive staining in NFL [2] | Effect on calpain-specific SBDP150 staining in NFL (calpain activation) ([2]; calpain inhibitor at 100 µM) | Effect on RGC damage in hypoxic retinal explants [3]
167 nM | 5130 nM | 0.28 nM | CC(C)(F)C[C@H](N[C@@H](c1ccc(-c2ccc(S(C)(=O)=O)cc2)cc1)C(F)(F)F)C(=O)NC1(C#N)CC1 [Odanacatib] | Neither Odanacatib nor SID26681509 mitigated the increase | – | –
495 nM | 60 nM | 1520 nM | CCc1ccccc1NC(=O)CSC(=O)NNC(=O)[C@H](Cc1c[nH]c2ccccc12)NC(=O)OC(C)(C)C [SID26681509] | Neither Odanacatib nor SID26681509 mitigated the increase | – | –
– | – | – | COCCOCCOC(=O)N[C@@H](CC(C)C)C(=O)N[C@@H](Cc1ccccc1)C(=O)C(=O)NC1CC1 [SNJ-1945] | – | demonstrated efficacy in reducing calpain activation | partially inhibited RGC damage
